The results in this text go back to patent US9480722B2, “Method of alleviating or treating periodontal disease” (priority 2012, dated 2016).

Test [1] deals with Porphyromonas gingivalis. Put plainly: Determination of minimal bactericidal concentration (MBC), plating on sBHI agar with 5% defibrinated sheep blood. The class given is cell-based. The protocol:
Porphyromonas gingivalis was purchased from Food Industry Research and Development Institute ([…], Taiwan) with the accession number BCRC 14417. After thawing from frozen tube, Porphyromonas gingivalis was activated in the supplemented brain heart infusion broth, and cultured at 37° C. anaerobic condition (80% N2, 10% H2, 10% CO2) for 24 hours to 48 hours. […] Chlorhexidine was used as positive control. […]. After Porphyromonas gingivalis with said solution of Antrodia camphorata 95% ethanol extract or chlorhexidine were cultured at 37° C. under anaerobic condition (80% N2, 10% H2, 10% CO2) for 48 hours, 10 μl aliquot […] was added to supplemented brain heart infusion agar with 5% defibrinated sheep blood. Then, broth was gently coated uniformly onto supplemented brain heart infusion agar with 5% defibrinated sheep blood by a triangular sterilized glass rod and cultured at 37° C. anaerobic condition (80% N2, 10% H2, 10% CO2) for 5 days. […] ([…] Castro et al., 2009, Bioorganic & Medicinal Chemistry, 17:5332-5335)

In test [2] the test system is Porphyromonas gingivalis. Put plainly: Determination of minimal inhibitory concentration (MIC), broth microplate, absorbance at 600 nm. The class given is cell-based. As to conditions: BCRC14417, P. gingivalis BCRC 14417, 24 hours anaerobic, 37° C., concentration at absorbance ≦0.5 at 600 nm. On the procedure:
Porphyromonas gingivalis was purchased from Food Industry Research and Development Institute ([…], Taiwan) with the accession number BCRC 14417. After thawing from frozen tube, Porphyromonas gingivalis was activated in the supplemented brain heart infusion broth, and cultured at 37° C. anaerobic condition (80% N2, 10% H2, 10% CO2) for 24 hours to 48 hours. […] Chlorhexidine was used as positive control. The 2.5% (v/v) dimethyl sulfoxide was used as normal control.

As a reminder, the MBC is the smallest concentration meeting the test's criterion for killing. Read a low MBC as more potent killing. Broadly, the MIC is the lowest concentration that inhibits growth of the organism. A higher MIC goes with a need for much substance. `[H]/N=C(\N/C(=N/[H])NCCCCCCNC(=N)NC(=N)Nc1ccc(Cl)cc1)Nc1ccc(Cl)cc1` [Chlorhexidine, Chlorhexidine digluconate] had an MBC against Porphyromonas gingivalis [1] (Porphyromonas gingivalis, BCRC14417) of 4 µg/mL. Further, the “colony growth on supplemented brain heart infusion agar with 5% defibrinated sheep blood” value in the test on Porphyromonas gingivalis [1] (concentration above 4 μg/ml, FIG. 3) was “no colony growing”. In addition, the MIC against Porphyromonas gingivalis [2] came out at 4 µg/mL.
